Literature values in patent US10617673B2, “Cannabinoid receptor antagonists/inverse agonists useful for treating metabolic disorders, including obesity and diabetes” (Jenrin Discovery, LLC, priority 2012, dated 2020).

Settings: type 2 diabetes patients not on other anti-diabetic medications, after six months, baseline value 7.9

Cc1c(C(=O)NN2CCCCC2)nn(-c2ccc(Cl)cc2Cl)c1-c1ccc(Cl)cc1 [rimonabant]
HbA1c levels lowered: 0.8%
